Measured values from US9079929B2, “Substituted tetrahydroisoquinoline compounds as factor XIa inhibitors” (priority 2011, dated 2015).
Counter-ions that a name gives are not always drawn.

These molecules were tested against human Factor XIa (Homo sapiens (Human), UniProt P03951) (assay: Factor XIa enzyme inhibition assay (chromogenic substrate S-2366)). Settings: purified human Factor XIa, substrate S-2366, pH 7.4.
Type: biochemical
Procedure: The results of this assay are expressed as the inhibitory constant, Ki.
Values of Ki were determined by allowing the protease to react with the substrate in the presence of the inhibitor. Reactions were allowed to go for periods of 20-180 minutes (depending on the protease) and the velocities (rate of absorbance or fluorescence change versus time) were measured. The following relationships were used to calculate Ki values:
vs/vo=A+((B−A)/1+((IC50/(I)n))); and […]

Chain of human Factor XIa (P03951 whole entry, looked up): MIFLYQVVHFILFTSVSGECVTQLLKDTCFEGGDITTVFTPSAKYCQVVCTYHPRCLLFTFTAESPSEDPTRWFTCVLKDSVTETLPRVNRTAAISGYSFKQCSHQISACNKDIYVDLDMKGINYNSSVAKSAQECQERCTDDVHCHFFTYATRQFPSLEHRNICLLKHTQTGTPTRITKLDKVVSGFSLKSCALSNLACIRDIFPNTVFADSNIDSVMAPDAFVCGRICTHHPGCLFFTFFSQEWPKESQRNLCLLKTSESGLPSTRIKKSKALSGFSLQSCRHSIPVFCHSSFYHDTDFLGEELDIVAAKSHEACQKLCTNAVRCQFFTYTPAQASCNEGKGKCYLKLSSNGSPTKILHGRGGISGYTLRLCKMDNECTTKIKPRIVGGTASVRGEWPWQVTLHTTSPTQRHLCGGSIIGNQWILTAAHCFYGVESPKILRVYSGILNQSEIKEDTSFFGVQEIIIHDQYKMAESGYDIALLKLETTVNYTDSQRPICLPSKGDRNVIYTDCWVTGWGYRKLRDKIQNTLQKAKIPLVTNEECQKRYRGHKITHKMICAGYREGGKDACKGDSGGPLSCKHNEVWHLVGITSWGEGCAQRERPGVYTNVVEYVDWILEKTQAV
Chain of human Factor XIa (P03951 whole entry partner, looked up): as the sequence (P03951 whole entry, looked up) above

Q: Which Ki does the source give for CN(C)CCNC(=O)c1ccc(-c2cccc3c2CCN(C(=O)/C=C/c2c(-n4cnnn4)ccc(Cl)c2F)[C@H]3C(=O)Nc2ccc(C(=O)OCc3ccccn3)cc2)cc1 [Example 98] here?
A: 132 nM

Q: Which Ki does the source give for CCOC(=O)[C@H]1CCCN(C(=O)c2cccc3c2CCN(C(=O)/C=C/c2c(-n4cnnn4)ccc(Cl)c2F)C3C(=O)Nc2ccc(NC(=O)OC)cc2)C1 (stereo partly drawn) [Example 16] here?
A: 332 nM

Q: Which Ki does the source give for CC(C)(C)OC(=O)c1ccc(NC(=O)C2c3cccc(C(=O)N4CCN(C(=O)OC(C)(C)C)CC4)c3CCN2C(=O)/C=C/c2c(-n3cnnn3)ccc(Cl)c2F)cc1 (stereo not drawn) [Example 24] here?
A: 170 nM

Q: CC(=O)c1ccc(Cl)c(F)c1/C=C/C(=O)N1CCc2c(O)cccc2C1C(=O)Nc1ccc(C(=O)O)cc1 (stereo not drawn) [Example 146, (E)-4-(2-(3-(6-acetyl-3-chloro-2-fluorophenyl)acryloyl)-5-hydroxy-1,2,3,4-tetrahydroisoquinoline-1-carboxamido)benzoic acid] was tested. Which Ki did it give?
A: 24.8 nM

Q: For CCOC(=O)c1ccc(NC(=O)C2c3cccc(-c4ccc(C(=O)NC)nc4)c3CCN2C(=O)/C=C/c2c(-n3cnnn3)ccc(Cl)c2F)cc1 (stereo not drawn) [Example 188], which Ki is on record?
A: 3860 nM

Q: With CN(C)CCOc1cccc2c1CCN(C(=O)/C=C/c1c(-n3cnnn3)ccc(Cl)c1F)C2C(=O)Nc1ccc(C(=O)O)cc1 (stereo not drawn) [Example 132, (E)-4-(2-(3-(3-chloro-2-fluoro-6-(1H-tetrazol-1-yl)phenyl)acryloyl)-5-(2-(dimethylamino)ethoxy)-1,2,3,4-tetrahydroisoquinoline-1-carboxamido)benzoic acid, TFA salt] as the molecule, how does the Ki read?
A: < 5 nM

Q: Which Ki does the source give for CC[C@H](C)NC(=O)C1c2cccc(-c3ccc(C(=O)NC)cc3)c2CCN1C(=O)/C=C/c1c(-n2cnnn2)ccc(Cl)c1F (stereo partly drawn) [Example 65] here?
A: 49.2 nM

Q: For CCOC(=O)c1ccc(NC(=O)C2c3cccc(OCCC4CCN(C)CC4)c3CC(C)(C)N2C(=O)/C=C/c2c(-n3cnnn3)ccc(Cl)c2F)cc1 (stereo not drawn) [Example 152, (E)-ethyl 4-(2-(3-(3-chloro-2-fluoro-6-(1H-tetrazol-1-yl)phenyl)acryloyl)-3,3-dimethyl-5-(2-(1-methylpiperidin-4-yl)ethoxy)-1,2,3,4-tetrahydroisoquinoline-1-carboxamido)benzoate, TFA salt], which Ki is on record?
A: 100 nM

Q: Which Ki does the source give for O=C(O)c1ccc(NC(=O)C2c3cccc(C(=O)N4CCNCC4)c3CCN2C(=O)/C=C/c2c(-n3cnnn3)ccc(Cl)c2F)cc1 (stereo not drawn) [Example 30] here?
A: < 5 nM

Q: For CNC(=O)c1ccc(-c2cccc3c2CCN(C(=O)/C=C/c2c(-n4cnnn4)ccc(Cl)c2F)C3C(=O)Nc2ccc(C(=O)O)cc2)cn1 (stereo not drawn) [Example 78], which Ki is on record?
A: < 5 nM

Q: Which Ki does the source give for CNC(=O)c1ccc(-c2cccc3c2CCN(C(=O)/C=C/c2c(-n4cnnn4)ccc(Cl)c2F)C3C(=O)Nc2ccc3c(c2)CN=N3)cc1 (stereo not drawn) [Example 80] here?
A: 20.1 nM

Q: Which Ki does the source give for CS(=O)(=O)Nc1cccc2c1CCN(C(=O)/C=C/c1c(-n3cnnn3)ccc(Cl)c1F)C2C(=O)Nc1ccc(C(=O)O)cc1 (stereo not drawn) [Example 9, (E)-4-(2-(3-(3-chloro-2-fluoro-6-(1H-tetrazol-1-yl)phenyl)acryloyl)-5-(methylsulfonamido)-1,2,3,4-tetrahydroisoquinoline-1-carboxamido)benzoic acid] here?
A: < 5 nM

Q: For O=C(O)c1ccc(NC(=O)C2c3cccc(C(=O)N4CCNCC4)c3CCN2C(=O)/C=C/c2c(-n3cnnn3)ccc(Cl)c2F)cc1 (stereo not drawn) [Example 29], which Ki is on record?
A: 553 nM

Q: For CC(=O)c1ccc(Cl)c(F)c1/C=C/C(=O)N1CCc2c(-c3ccc(C(N)=O)cc3)cccc2[C@@H]1C(=O)Nc1ccc(C(=O)O)cc1 [Example 120], which Ki is on record?
A: 291 nM

Q: CN(C)CCNC(=O)c1ccc(-c2cccc3c2CCN(C(=O)/C=C/c2c(-n4cnnn4)ccc(Cl)c2F)C3C(=O)Nc2ccc(C(=O)OC(C)(C)C)cc2)cc1 (stereo not drawn) [Example 89] was tested. Which Ki did it give?
A: < 5 nM

Q: Which Ki does the source give for COCCNC(=O)c1cccc2c1CCN(C(=O)/C=C/c1cc(Cl)ccc1-n1cnnn1)C2C(=O)Nc1ccc(C(=O)O)cc1 (stereo not drawn) [Example 3, (E)-4-(2-(3-(5-Chloro-2-(1H-tetrazol-1-yl)phenyl)acryloyl)-5-(2-methoxyethylcarbamoyl)-1,2,3,4-tetrahydroisoquinoline-1-carboxamido)benzoic acid] here?
A: 21.3 nM

Q: How did the Ki turn out when CCOC(=O)c1ccc(NC(=O)[C@H]2c3cccc(OCCC4CCNCC4)c3CCN2C(=O)/C=C/c2c(-n3cnnn3)ccc(Cl)c2F)cc1 [Example 160, (R,E)-ethyl 4-(2-(3-(3-chloro-2-fluoro-6-(1H-tetrazol-1-yl)phenyl)-acryloyl)-5-(2-(piperidin-4-yl)ethoxy)-1,2,3,4-tetrahydroisoquinoline-1-carboxamido)benzoate, TFA salt] was run?
A: 3530 nM

Q: CNC(=O)c1ccc(-c2cccc3c2CCN(C(=O)/C=C/c2c(-n4cnnn4)ccc(Cl)c2F)C3C(=O)NCc2nccn2C)cc1 (stereo not drawn) [Example 66] was tested. Which Ki did it give?
A: 534 nM

Q: For CC(=O)c1ccc(Cl)c(F)c1/C=C/C(=O)N1CCc2c(-c3ccc(C(=O)NCCN(C)C)cc3)cccc2[C@@H]1C(=O)Nc1ccc(C(=O)O)cc1 [Example 150, (R,E)-4-(2-(3-(6-Acetyl-3-chloro-2-fluorophenyl)acryloyl)-5-(4-(2-(dimethylamino)ethylcarbamoyl)phenyl)-1,2,3,4-tetrahydroisoquinoline-1-carboxamido)benzoic acid, TFA salt], which Ki is on record?
A: 37 nM

Q: How did the Ki turn out when Cn1nccc1-c1cccc2c1CCN(C(=O)/C=C/c1c(-n3cnnn3)ccc(Cl)c1F)C2C(=O)Nc1ccc(C(=O)O)cc1 (stereo not drawn) [Example 173, (E)-4-(2-(3-(3-Chloro-2-fluoro-6-(1H-tetrazol-1-yl)phenyl)acryloyl)-5-(1-methyl-1H-pyrazol-5-yl)-1,2,3,4-tetrahydroisoquinoline-1-carboxamido)benzoic acid] was run?
A: < 5 nM

Q: With CN(C)CCNC(=O)c1ccc(-c2cccc3c2CCN(C(=O)/C=C/c2c(-n4cnnn4)ccc(Cl)c2F)[C@H]3C(=O)Nc2ccc(C(=O)OCCN(C)C)cc2)cc1 [Example 93, (R,E)-2-(dimethylamino)ethyl 4-(2-(3-(3-chloro-2-fluoro-6-(1H-tetrazol-1-yl)phenyl)acryloyl)-5-(4-((2-(dimethylamino)ethyl)carbamoyl)phenyl)-1,2,3,4-tetrahydroisoquinoline-1-carboxamido)benzoate; bis-TFA salt] as the molecule, how does the Ki read?
A: 951 nM

Q: For O=C(O)c1ccc(NC(=O)C2c3cccc(OC4CCNCC4)c3CCN2C(=O)/C=C/c2c(-n3cnnn3)ccc(Cl)c2F)cc1 (stereo not drawn) [Example 108, (E)-4-(2-(3-(3-Chloro-2-fluoro-6-(1H-tetrazol-1-yl)phenyl)acryloyl)-5-(piperidin-4-yloxy)-1,2,3,4-tetrahydroisoquinoline-1-carboxamido)benzoic acid, TFA salt], which Ki is on record?
A: < 5 nM

Q: For COc1ccc(-c2cccc3c2CCN(C(=O)/C=C/c2c(-n4cnnn4)ccc(Cl)c2F)C3C(=O)Nc2ccc(C(=O)O)cc2)c(Cl)c1 (stereo not drawn) [Example 47, (E)-4-(2-(3-(3-chloro-2-fluoro-6-(1H-tetrazol-1-yl)phenyl)acryloyl)-5-(2-chloro-4-methoxyphenyl)-1,2,3,4-tetrahydroisoquinoline-1-carboxamido)benzoic acid], which Ki is on record?
A: < 5 nM

Q: Which Ki does the source give for CN(C)c1ccc(-c2cccc3c2CCN(C(=O)/C=C/c2c(-n4cnnn4)ccc(Cl)c2F)C3C(=O)Nc2ccc(C(=O)O)cc2)cn1 (stereo not drawn) [Example 191] here?
A: < 5 nM

Q: COC(=O)Nc1ccc(-c2cccc3c2CCN(C(=O)/C=C/c2c(-n4cnnn4)ccc(Cl)c2F)[C@H]3C(=O)Nc2ccc(F)cc2)cc1 [Example 50, (R,E)-Methyl 4-(2-(3-(3-chloro-2-fluoro-6-(1H-tetrazol-1-yl)phenyl)acryloyl)-1-(4-fluorophenylcarbamoyl)-1,2,3,4-tetrahydroisoquinolin-5-yl)phenylcarbamate] was tested. Which Ki did it give?
A: 3370 nM

Q: With CNC(=O)c1ccc(-c2cccc3c2CCN(C(=O)/C=C/c2c(-n4cnnn4)ccc(Cl)c2F)C3C(=O)NCC(=O)OC)cc1 (stereo not drawn) [Example 61] as the molecule, how does the Ki read?
A: 342 nM

Q: How did the Ki turn out when CCOC(=O)CCCNC(=O)c1cccc2c1CCN(C(=O)/C=C/c1c(-n3cnnn3)ccc(Cl)c1F)C2C(=O)Nc1ccc(F)cc1 (stereo not drawn) [Example 14] was run?
A: 580 nM
